Test results published in ChEMBL document CHEMBL1143249, “N-alkyl-4-piperidinyl-2,3-diarylpyrrole derivatives with heterocyclic substitutions as potent and broad spectrum anticoccidial agents” (Bioorg Med Chem Lett, 2008).
Active and inactive are the calls of the source. The calls are words filed in the database; no cut-off is given here.

What was measured:
Eimeria tenella [1] = assay: Anticoccidial activity against Eimeria tenella in chick assessed as reduction in oocyst at 100 ppm, po after 6 days; assay type: functional
[2] = molecular target: cGMP-dependent protein kinase (Eimeria tenella, UniProt Q8MMZ8); assay: Inhibition of Eimeria tenella cGMP-dependent protein kinase
cGMP-dependent protein kinase, sequence (Q8MMZ8 whole entry): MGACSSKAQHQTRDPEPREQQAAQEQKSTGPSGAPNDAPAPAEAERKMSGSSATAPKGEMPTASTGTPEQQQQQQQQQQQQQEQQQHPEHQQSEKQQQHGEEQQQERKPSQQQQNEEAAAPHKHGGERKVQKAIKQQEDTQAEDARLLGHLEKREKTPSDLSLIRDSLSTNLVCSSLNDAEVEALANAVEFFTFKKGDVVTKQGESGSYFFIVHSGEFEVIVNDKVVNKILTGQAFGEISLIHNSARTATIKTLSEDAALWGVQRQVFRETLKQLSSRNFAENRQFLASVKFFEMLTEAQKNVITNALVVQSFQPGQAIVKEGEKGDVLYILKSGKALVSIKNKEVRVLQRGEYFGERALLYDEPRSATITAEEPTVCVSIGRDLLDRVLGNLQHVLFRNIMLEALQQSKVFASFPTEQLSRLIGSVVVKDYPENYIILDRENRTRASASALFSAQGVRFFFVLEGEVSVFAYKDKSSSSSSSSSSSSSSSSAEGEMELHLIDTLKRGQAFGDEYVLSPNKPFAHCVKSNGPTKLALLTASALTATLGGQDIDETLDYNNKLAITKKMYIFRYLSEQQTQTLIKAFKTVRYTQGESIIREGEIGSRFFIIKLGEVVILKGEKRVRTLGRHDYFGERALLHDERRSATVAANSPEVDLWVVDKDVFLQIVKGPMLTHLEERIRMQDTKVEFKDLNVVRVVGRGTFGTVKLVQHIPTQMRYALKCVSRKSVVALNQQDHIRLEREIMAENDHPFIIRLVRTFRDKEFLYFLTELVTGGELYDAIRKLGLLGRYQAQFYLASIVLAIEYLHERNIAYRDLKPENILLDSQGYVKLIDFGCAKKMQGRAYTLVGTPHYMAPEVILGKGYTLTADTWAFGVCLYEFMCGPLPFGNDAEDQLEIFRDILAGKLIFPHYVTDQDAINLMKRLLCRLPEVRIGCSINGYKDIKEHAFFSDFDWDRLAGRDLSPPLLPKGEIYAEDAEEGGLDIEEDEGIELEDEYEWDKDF

Eimeria acervulina [3] = assay: Anticoccidial activity against Eimeria acervulina in chick assessed as reduction in oocyst at 100 ppm, po after 5 days; assay type: functional
Eimeria tenella [4] = assay: Anticoccidial activity against Eimeria tenella in chick assessed as reduction in oocyst at 50 ppm, po after 6 days; assay type: functional, organism-based
Eimeria acervulina [5] = assay: Anticoccidial activity against Eimeria acervulina in chick assessed as reduction in oocyst at 50 ppm, po after 5 days; assay type: functional, organism-based

| IC50 [2] [pM] | Structure (SMILES) | Activity (Eimeria tenella [1]) | Activity (Eimeria acervulina [3]) | Activity (Eimeria tenella [4]) | Activity (Eimeria acervulina [5]) |
| --- | --- | --- | --- | --- | --- |
| 2200 | CC(=O)N1CCN(C(C)=O)C(CN2CCC(c3cc(-c4ccncc4)c(-c4ccc(F)cc4)[nH]3)CC2)C1 (stereo unspecified) | inactive | inactive | – | – |
| 670 | CN1CCOC(CN2CCC(c3cc(-c4ccncc4)c(-c4ccc(F)cc4)[nH]3)CC2)C1 (stereo unspecified) | 80% | 80% | Active | Active |
| 270 | O=C(C1CNCCO1)N1CCC(c2cc(-c3ccncc3)c(-c3ccc(F)cc3)[nH]2)CC1 (stereo unspecified) | 80% | 50% | – | – |
| 1700 | OC[C@@H]1CCN1CCN1CCC(c2cc(-c3ccncc3)c(-c3ccc(F)cc3)[nH]2)CC1 | 80% | 80% | – | – |
| 80 | Fc1ccc(-c2[nH]c(C3CCN(CCN4CCC4)CC3)cc2-c2ccncc2)cc1 | 80% | 80% | – | – |
| 1030 | COC(=O)N1CCOC(CN2CCC(c3cc(-c4ccncc4)c(-c4ccc(F)cc4)[nH]3)CC2)C1 (stereo unspecified) | 80% | 50% | – | – |
| 360 | CCN1C[C@H](O)C[C@H]1CN1CCC(c2cc(-c3ccncc3)c(-c3ccc(F)cc3)[nH]2)CC1 | 80% | 50% | – | – |
| 1010 | O=C(CN1CCC(c2cc(-c3ccncc3)c(-c3ccc(F)cc3)[nH]2)CC1)N1CCC1 | 80% | 80% | – | – |
| 1080 | CN1CCN(C)C(CN2CCC(c3cc(-c4ccncc4)c(-c4ccc(F)cc4)[nH]3)CC2)C1 (stereo unspecified) | 50% | 50% | – | – |
| 340 | CN1C[C@H](O)C[C@H]1CN1CCC(c2cc(-c3ccncc3)c(-c3ccc(F)cc3)[nH]2)CC1 | 80% | 50% | – | – |
| 400 | CC(CN1CCC1)N1CCC(c2cc(-c3ccncc3)c(-c3ccc(F)cc3)[nH]2)CC1 (stereo unspecified) | 80% | 80% | – | – |
| 70 | Fc1ccc(-c2[nH]c(C3CCN(CC4CNCCN4)CC3)cc2-c2ccncc2)cc1 (stereo unspecified) | 80% | 50% | – | – |
| 4700 | COC(=O)N1CCOC(C(=O)N2CCC(c3cc(-c4ccncc4)c(-c4ccc(F)cc4)[nH]3)CC2)C1 (stereo unspecified) | 50% | 50% | – | – |
| 2200 | CC(=O)N1C[C@H](O)C[C@H]1CN1CCC(c2cc(-c3ccncc3)c(-c3ccc(F)cc3)[nH]2)CC1 | 80% | 50% | – | – |
| 280 | CN1CC[C@H]1CN1CCC(c2cc(-c3ccncc3)c(-c3ccc(F)cc3)[nH]2)CC1 | 80% | 80% | – | – |
| 160 | O[C@H]1CN[C@H](CN2CCC(c3cc(-c4ccncc4)c(-c4ccc(F)cc4)[nH]3)CC2)C1 | 80% | 50% | – | – |
| 170 | Fc1ccc(-c2[nH]c(C3CCN(CC4CNCCO4)CC3)cc2-c2ccncc2)cc1 (stereo unspecified) | 80% | 50% | – | – |
| 1410 | CS(=O)(=O)N1CCN(S(C)(=O)=O)C(CN2CCC(c3cc(-c4ccncc4)c(-c4ccc(F)cc4)[nH]3)CC2)C1 (stereo unspecified) | inactive | inactive | – | – |
